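96-well plates; 48 h exposure; 5 concentrations. Endpoints by linear interpolation between flanking doses. Not reached: highest tested concentration assigned. GI50 = concentration required for 50% inhibition of growth.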 Activity calls are given as the source filed them. Rule as the data show it: active = GI50 up to about 1.1 µM and inactive = higher.
Assays:
Assay in all cases: inhibition of tumour cell growth, NCI panel, 48 h
DLD-1 = system: DLD-1
DMS-273 = system: DMS-273
M19-MEL = system: M19-MEL
SNB-78 = system: SNB-78
XF498 = system: XF498
BT-549 = system: BT-549
Hs-578T = system: Hs-578T
LXFL 529 = system: LXFL 529
RXF 631 = system: RXF 631

## Cn1c2ccccc2c(=O)c2c(O)cc3c(c21)C=CC(C)(C)O3 [NORACRONYCINE]
DLD-1
  GI50: 19.4 µM (inactive)
DMS-273
  GI50: > 25 µM (inactive)
M19-MEL
  GI50: > 25 µM (inactive)
SNB-78
  GI50: > 25 µM (inactive)
XF498
  GI50: > 25 µM (inactive)

## N=C(N)N/N=C\c1c(-c2cccc([N+](=O)[O-])c2)nc2sccn12
BT-549
  GI50: 2.1 µM (inactive)
Hs-578T
  GI50: 3.62 µM (inactive)

## CCOc1cc(C2CC(c3ccc(NS(=O)(=O)c4cc([N+](=O)[O-])ccc4C)cc3)=NN2S(=O)(=O)c2cc([N+](=O)[O-])ccc2C)ccc1O (centres undefined)
BT-549
  GI50: 39.4 µM (inactive)
Hs-578T
  GI50: 42.4 µM (inactive)

## C/C(=C\c1ccc(Cl)cc1)C(C)(C)C(=O)O
BT-549
  GI50: > 100 µM (inactive)
Hs-578T
  GI50: > 100 µM (inactive)

## CC1(C)CNC(=O)C2(/C=N/C(C)(C)CNC(=O)C3(/C=N/1)CCCO3)CCCO2 (centres undefined)
BT-549
  GI50: > 10 µM (inactive)
Hs-578T
  GI50: > 10 µM (inactive)

## CC(C)CCC1CC2C(=O)N(c3ccccc3)C(=O)C2c2[nH]c3ccccc3c21 (centres undefined)
DLD-1
  GI50: 2.18 µM (inactive)
DMS-273
  GI50: 0.281 µM (active)
LXFL 529
  GI50: 6.05 µM (inactive)
M19-MEL
  GI50: 5.2 µM (inactive)
RXF 631
  GI50: 1.26 µM (inactive)
SNB-78
  GI50: 3.45 µM (inactive)
XF498
  GI50: 0.206 µM (active)

## N#C/C(=C\c1ccc(Br)cc1)c1nc(-c2cc3ccccc3oc2=O)cs1
BT-549
  GI50: 7.29 µM (inactive)
Hs-578T
  GI50: 11.5 µM (inactive)

## COc1ccc(-c2nnc3c4ccccc4sn23)cc1
DMS-273
  GI50: 10.8 µM (inactive)
LXFL 529
  GI50: 23.7 µM (inactive)
M19-MEL
  GI50: 22.5 µM (inactive)
SNB-78
  GI50: 41.9 µM (inactive)

## CCOC(=O)c1cc(C)nc2c1c(=O)n(-c1ccccc1)c(=O)n2CCCCN1CCN(c2ncccn2)CC1
BT-549
  GI50: 45.1 µM (inactive)
Hs-578T
  GI50: > 100 µM (inactive)

## Cc1cc(Cl)ccc1N1C(=O)C(=O)C(c2nc3ccccc3o2)C(=O)C1=O
DLD-1
  GI50: 32.9 µM (inactive)
DMS-273
  GI50: > 100 µM (inactive)
LXFL 529
  GI50: 71.3 µM (inactive)
M19-MEL
  GI50: > 100 µM (inactive)
SNB-78
  GI50: > 100 µM (inactive)
XF498
  GI50: > 100 µM (inactive)

## Brc1ccc(C2CC(c3cccc4ccccc34)=Nc3ccccc3S2)cc1 (centres undefined)
DLD-1
  GI50: 51.8 µM (inactive)
DMS-273
  GI50: 80 µM (inactive)
LXFL 529
  GI50: > 100 µM (inactive)
M19-MEL
  GI50: 40.2 µM (inactive)
SNB-78
  GI50: 82 µM (inactive)
XF498
  GI50: > 100 µM (inactive)

## CC1(C)CC(=O)c2c(nc3ccc4ccccc4c3c2-c2ccc(NC(=O)CCC(=O)Nc3ccc(-c4c5c(nc6ccc7ccccc7c46)CC(C)(C)CC5=O)cc3)cc2)C1
Hs-578T
  GI50: > 100 µM (inactive)

## CC(=O)Nc1ccc(/C=C/C(=O)N2CC(CCl)c3c2cc(N)c2ccccc32)cc1 (centres undefined)
BT-549
  GI50: 0.00624 µM (active)

## COc1ccc(/C=C2\N=C3N(Cc4ccccc4)C=C(N)N3C2=O)cc1
BT-549
  GI50: 32.9 µM (inactive)
Hs-578T
  GI50: 28.8 µM (inactive)

## O=C(O)/C=C/c1c[nH]cn1
DLD-1
  GI50: > 500 µM (inactive)
DMS-273
  GI50: > 500 µM (inactive)
M19-MEL
  GI50: > 500 µM (inactive)
XF498
  GI50: > 500 µM (inactive)

## CN1C[C@H]2[C@@H](C1=O)[C@H](c1ccccc1)ON2C
Hs-578T
  GI50: > 100 µM (inactive)

## COc1ccc(-c2cc(C(O)C3CCCCN3)c3ccccc3n2)cc1 (centres undefined)
BT-549
  GI50: 15.9 µM (inactive)
Hs-578T
  GI50: 14.3 µM (inactive)

## O=C1C2C(C(=O)N1OS(=O)(=O)c1ccccc1)N(Cc1ccccc1)C(=O)N2Cc1ccccc1 (centres undefined)
DLD-1
  GI50: > 100 µM (inactive)
LXFL 529
  GI50: > 100 µM (inactive)
M19-MEL
  GI50: > 100 µM (inactive)
RXF 631
  GI50: > 100 µM (inactive)
SNB-78
  GI50: > 100 µM (inactive)
XF498
  GI50: > 100 µM (inactive)

## CC(C)(C)[Si](C)(C)OCC1CCC(n2cnc3c(N)ncnc32)O1 (centres undefined)
BT-549
  GI50: 27 µM (inactive)
Hs-578T
  GI50: 72.1 µM (inactive)

## CCC1CN2CCC1CC2 (centres undefined)
DLD-1
  GI50: > 100 µM (inactive)
DMS-273
  GI50: > 100 µM (inactive)
M19-MEL
  GI50: > 100 µM (inactive)
SNB-78
  GI50: > 100 µM (inactive)
XF498
  GI50: > 100 µM (inactive)

## N#Cc1c(N2CCOCC2)ncn(-c2ccccc2)c1=O
BT-549
  GI50: > 100 µM (inactive)

## COc1c(Cl)cc(S(=O)O)cc1Cl
DLD-1
  GI50: > 100 µM (inactive)
LXFL 529
  GI50: > 100 µM (inactive)
M19-MEL
  GI50: > 100 µM (inactive)
SNB-78
  GI50: > 100 µM (inactive)
XF498
  GI50: > 100 µM (inactive)

## CC(=O)N(CCN1C(=O)c2ccccc2C1=O)CCN1C(=O)c2ccccc2C1=O
DLD-1
  GI50: > 100 µM (inactive)
DMS-273
  GI50: > 100 µM (inactive)
LXFL 529
  GI50: > 100 µM (inactive)
M19-MEL
  GI50: > 100 µM (inactive)
SNB-78
  GI50: > 100 µM (inactive)
XF498
  GI50: > 100 µM (inactive)

## N#CSCC1COc2ccccc2O1 (centres undefined)
Hs-578T
  GI50: > 10 µM (inactive)

## CC1(C)N=C(N)N=C(N)N1c1ccc(Cl)cc1
BT-549
  GI50: 26.2 µM (inactive)
Hs-578T
  GI50: > 100 µM (inactive)

## C[C@H]1[C@@H]2C[C@@H]3O[C@@]34[C@H]3CCC5Cc6nc7c(nc6C[C@@]5(C)[C@]3(O)CC(=O)[C@@]24CO[C@]12OC(C)(C)C[C@@H]2O)CC1CC[C@@H]2C3=C[C@H]4O[C@@]5(OC(C)(CO)C[C@@H]5O)[C@H](C)[C@@]4(O)[C@]3(C)[C@@H](O)CC2[C@]1(C)C7 (some centres undefined)
DLD-1
  GI50: 0.191 µM (active)
DMS-273
  GI50: 0.00345 µM (active)
M19-MEL
  GI50: 2.77 µM (inactive)
SNB-78
  GI50: 0.00792 µM (active)
XF498
  GI50: 0.00769 µM (active)

## COC(=O)[C@@H]1c2cc3c(c(O)c2[C@@H](OC)C[C@@]1(C)O)C(=O)c1c(O)cc2c(c1C3=O)OC1O[C@@]2(C)[C@H](O)[C@@H](N(C)C)[C@@H]1O
DLD-1
  GI50: 1.86 µM (inactive)
DMS-273
  GI50: 0.118 µM (active)
M19-MEL
  GI50: 0.266 µM (active)
SNB-78
  GI50: 0.552 µM (active)
XF498
  GI50: 0.179 µM (active)

## CCOP(=O)(OCC)/C(C#N)=C/c1cccn1Cc1ccccc1
BT-549
  GI50: 32.3 µM (inactive)

## CCCCCCCCC[C@@H]1C[C@H](O)[C@H](Cc2ccccc2)N1C(=O)OC(C)(C)C
DLD-1
  GI50: 18.3 µM (inactive)
DMS-273
  GI50: 18.1 µM (inactive)
LXFL 529
  GI50: 17.2 µM (inactive)
M19-MEL
  GI50: 16.8 µM (inactive)
SNB-78
  GI50: 22.8 µM (inactive)
XF498
  GI50: 22.2 µM (inactive)

## C[C@@H](CC(O)C(O)C(C)(C)O)C1CCC23CC12CCC1[C@@]2(C)CCC(O)C(C)(C)C2CC(OC2OC(CO)C(O)C(O)C2O)[C@]13C (some centres undefined)
BT-549
  GI50: > 10 µM (inactive)
Hs-578T
  GI50: > 10 µM (inactive)

## O=C(O)CCCCCCCCC(=O)O [SEBACIC ACID]
DLD-1
  GI50: 108 µM (inactive)
DMS-273
  GI50: 50 µM (inactive)
M19-MEL
  GI50: > 79.3 µM (inactive)
SNB-78
  GI50: > 500 µM (inactive)
XF498
  GI50: 3.62 µM (inactive)

## COc1cc(C(C)c2cc3c(cc2OCCO)OCO3)cc(OC)c1OC (centres undefined)
DLD-1
  GI50: 1.71 µM (inactive)
DMS-273
  GI50: 0.413 µM (active)
LXFL 529
  GI50: 2.77 µM (inactive)
M19-MEL
  GI50: 1.66 µM (inactive)
SNB-78
  GI50: 12.2 µM (inactive)
XF498
  GI50: < 0.01 µM (active)

## Sc1nn2c(COc3cc(Cl)c(OCc4nnc5sc(S)nn45)cc3Cl)nnc2s1
BT-549
  GI50: 32.7 µM (inactive)
Hs-578T
  GI50: > 100 µM (inactive)

## CCCCCCCC/C=C\CCCCCCCCNc1ccn(C2OC(COP(=O)(O)OC3CC(n4cc(F)c(=O)[nH]c4=O)OC3CO)C(O)C2O)c(=O)n1 (centres undefined)
BT-549
  GI50: 20.9 µM (inactive)
Hs-578T
  GI50: > 100 µM (inactive)

## Cc1ccc(S(=O)(=O)NC(=O)NC(Cc2ccccc2)C(=O)O)cc1 (centres undefined)
BT-549
  GI50: > 100 µM (inactive)
Hs-578T
  GI50: > 100 µM (inactive)

## CC1=C2C(=C[C@H]3[C@]4(C)CCCC(C)(C)[C@H]4CC[C@]34O[C@H]24)OC1=O
BT-549
  GI50: > 100 µM (inactive)

## O=C(Nc1ccc(C2=NCCN2)cc1)c1cncc(C(=O)Nc2ccc(C3=NCCN3)cc2)c1
DLD-1
  GI50: > 100 µM (inactive)
DMS-273
  GI50: > 100 µM (inactive)
M19-MEL
  GI50: > 100 µM (inactive)
SNB-78
  GI50: > 100 µM (inactive)
XF498
  GI50: > 100 µM (inactive)

## CC(NNC(=O)c1cc[n+]([BH2-]C#N)cc1)c1ccc(F)cc1 (centres undefined)
BT-549
  GI50: > 100 µM (inactive)
Hs-578T
  GI50: > 100 µM (inactive)

## O=C1CSC(c2ccccc2)N1c1ccc(-c2ccc(-n3c(-c4ccccc4)nc4ccccc4c3=O)cc2)cc1 (centres undefined)
BT-549
  GI50: 43.3 µM (inactive)
Hs-578T
  GI50: > 100 µM (inactive)

## COc1ccc(-c2cc(=O)c3ccccc3o2)cc1N
DMS-273
  GI50: 41.3 µM (inactive)
LXFL 529
  GI50: 35.7 µM (inactive)
M19-MEL
  GI50: 86.1 µM (inactive)
RXF 631
  GI50: 42.3 µM (inactive)
SNB-78
  GI50: 68.4 µM (inactive)
XF498
  GI50: 18.2 µM (inactive)

## O=C(O)c1ccc([N+](=O)[O-])c2c(=O)c3ccccc3[nH]c12
DLD-1
  GI50: > 100 µM (inactive)
DMS-273
  GI50: > 100 µM (inactive)
LXFL 529
  GI50: > 100 µM (inactive)
M19-MEL
  GI50: > 100 µM (inactive)
RXF 631
  GI50: > 100 µM (inactive)
SNB-78
  GI50: > 100 µM (inactive)

## COc1cc(C2c3[nH]c4ccccc4c3[C@@H](Nc3ccc(F)cc3)[C@H]3COC(=O)N23)cc(OC)c1O (some centres undefined)
BT-549
  GI50: 1.36 µM (inactive)
Hs-578T
  GI50: 0.0962 µM (active)

Source: ChEMBL document CHEMBL1201862, “PubChem BioAssay data set” (2004)
